Measured values from patent publication US11952431B2, “Neutrophil-binding peptides” (YISSUM RESEARCH DEVELOPMENT COMPANY OF THE HEBREW …, priority 2020, dated 2024).

Tests used:
CD177 [1] = biological target: T1, CD177 (Homo sapiens, UniProt Q8N6Q3); experiment: Pull-down with KFP-tetramer as bait, mass spectrometry; assay type: binding
T1 construct: endogenous in cells; host or cells: human neutrophils from healthy donors, COPD patients and lung cancer patients
T1 sequence (Q8N6Q3 22-408): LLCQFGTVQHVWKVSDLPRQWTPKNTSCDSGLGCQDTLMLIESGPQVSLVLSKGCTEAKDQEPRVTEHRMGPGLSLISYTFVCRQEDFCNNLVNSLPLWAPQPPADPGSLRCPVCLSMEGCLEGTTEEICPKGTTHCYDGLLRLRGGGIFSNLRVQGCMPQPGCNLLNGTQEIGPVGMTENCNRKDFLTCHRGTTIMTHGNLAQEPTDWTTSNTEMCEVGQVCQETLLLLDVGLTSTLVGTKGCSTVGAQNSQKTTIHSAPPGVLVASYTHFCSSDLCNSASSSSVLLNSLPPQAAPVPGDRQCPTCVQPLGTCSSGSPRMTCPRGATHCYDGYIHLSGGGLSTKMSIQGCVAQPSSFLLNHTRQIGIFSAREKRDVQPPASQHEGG
Text: (§1) Similarly, the human CD177 was identified as a binding-partner of the peptides binding to human neutrophils (SEQ ID NOs: 1-8). […] Still, the extent of KFP-tetramer binding and CD177 levels fit well within the correlation plot and support the role of CD177 in mediating the binding of the KFP-tetramer to neutrophils (FIG. 22B).

neutrophils [2] = experiment: Effect of KFP-tetramer / 16-KFP on neutrophil viability (microscopy, flow cytometry); assay type: cell-based, human
neutrophils [3] = experiment: Effect of KFP-tetramer / 16-KFP on neutrophil activation (ROS production); assay type: cell-based, human
Text: (§2) A biotinylated KFP-tetramer multiantigen (designated 16-KFP) was generated in the same manner as the 16-LQI. In whole blood, 16-KFP bound ˜80% of human neutorophils and less than 10% of non-neutrophil WBC (FIG. 15A).

[4] = test system: murine neutrophils (HDNs from 4T1-tumor bearing mice); experiment: Titration of binding to purified HDNs, flow cytometry; set-up: species or system mouse; conditions: tetramer-SA complex of control peptide
Procedure: Analysis was performed by flow cytometry.

human neutrophils = experiment: 16-KFP binding in whole blood; conditions: healthy donor
Text: as §2

non-neutrophil WBC = experiment: 16-KFP binding in whole blood; set-up: species or system human; conditions: healthy donor
Text: as §2

neutrophils [5] = experiment: Effect of KFP-tetramer / 16-KFP on neutrophil chemotaxis; assay type: cell-based, human
Text: as §2

CD177 [6] = biological target: T1, CD177; experiment: Correlation of CD177 expression and KFP-tetramer binding in donors; conditions: healthy donors, patients with COPD and lung cancer patients
Text: FIGS. 22A-C: (22A) Bar graph of 16-KFP binding and CD177 expression of neutrophils of healthy donors (2, 6, 10), COPD patients (11, 12) and lung cancer patients (13). (22B) Line graph of correlation between CD177 expression and 16-KFP binding in different donors. (22C) Bare graph of binding of 16-KFP to neutrophils with increasing amounts of CD177 blocking antibody.
as §1

Substance | binding partner identified (CD177 [1]) | effect on neutrophil viability (neutrophils [2]) | effect on neutrophil activation (ROS production, FIG. 15B) (neutrophils [3]) | binding to murine neutrophils [4] | human neutrophils bound (human neutrophils) | non-neutrophil WBC bound (non-neutrophil WBC) | effect on chemotactic properties (neutrophils [5]) | correlation between CD177 expression and binding to neutrophils (CD177 [6]) | chemoattraction of neutrophils (neutrophils [5]; FIG. 15E) | effect on neutrophil attraction to CXCL2 (neutrophils [5]; FIG. 15F)
16-KFP: biotinylated KFP-tetramer multiantigen generated in the same manner as 16-LQI; tetramer-SA complex used as control on murine neutrophils [Peptide 16-KFP] | CD177 was identified as the binding partner | no significant effect | no significant effect | did not show binding | ~80% | less than 10% | no significant effect |  |  | 
(KFPDLDSRRLPHMSL (SEQ ID NO: 1) Doa-Doa-C)4-(Mpa)-4-Lys2-Lys-beta-Ala-Lys(Biotin)-beta-Ala-OH [KFP tetramer] |  |  | no effect |  |  |  |  | strong positive correlation | not chemoattractive | no effect
